Laboratory results published in patent publication US12006276B2, “Dibromobenzyl derivative, stereoisomer or salt thereof, and preparation method and application of dibromobenzyl derivative” (CHENGDU SHIBEIKANG BIOMEDICAL TECHNOLOGY CO., LTD., priority 2019, dated 2024).
Where a name gives a salt, the structure may show the parent alone.

Assays:
SD rats = experiment: Capillary expectoration test in rats; assay type: in vivo, rat; settings: for 90-min length of phlegm expelled: SD rats, 15 mg/kg via tail vein, capillary tube in trachea, x ± s, n=10; for Expectorant effect compared with the ambroxol hydrochloride group (in words): rats, 15 mg/kg, P<0.05 vs ambroxol hydrochloride
Procedure: Capillary Expectoration Test in Rats
The female and male SD rats with body weights ranging from 180 g to 220 g are randomLy allocated into 9 groups (n=10 rats). Before measuring the length of phlegm expelled, the rats are prohibited to eat but allowed to drink for 12 hrs, and then administrated via tail veins with corresponding products (dissolved in normal saline to adjust pH) or normal saline. After 30 mins, urethane saline solution (1 g/kg) is injected intraperitoneally for anesthesia, and the rats are fixed in a supine position for neck incision and trachea separation. […] The angle between the capillary tube and the trachea is adjusted to collect the phlegm, and the expectoration effect is evaluated based on a total length (mm) of the phlegm in the capillary tube.

mice = experiment: Phenol red expectoration test in mice; assay type: in vivo, mouse; settings: for Excretory amount of phenol red (OD value): 30 mg/kg as free alkali, twice via tail vein, trachea phenol red at 546 nm, x ± s, n=12; for Excretory amounts of phenol red compared with the ambroxol hydrochloride group (in words) / Excretory amounts of phenol red compared with the control group (in words): 30 mg/kg; for Excretory amounts of phenol red compared with the ambroxol hydrochloride group (in words): P<0.05 vs ambroxol hydrochloride; for Excretory amounts of phenol red compared with the control group (in words): p<0.05 vs control
Procedure: Phenol Red Expectoration Test in Mice
Methods: Seventy-two female and male mice are randomLy allocated into a control group (normal saline), an Example 1 group (30 mg/kg, as free alkali), an Example 3 group (30 mg/kg, as free alkali), an Example 5 group (30 mg/kg, as free alkali), an Example 12 group (30 mg/kg, as free alkali) and an ambroxol hydrochloride group (30 mg/kg, as free alkali) (n=12 mice); These mice are administrated twice in successive via tail veins with corresponding products (dissolved in normal saline to adjust pH) or normal saline, and then receive 5% phenol red saline solution (0.5 g/kg) by hypodermic administration 15 mins after the last dose. […] The effects on excretory amounts of phenol red from trachea of mice among groups are analyzed and compared, and results are shown in Table 2: […]

[1] = Pharmacokinetics test in rats; assay type: in vivo, rat; settings: intravenous; for MRT / clearance / half-life / AUC(0-inf): both sexes, rat, plasma, 10 mg/kg as free alkali; for MRT / clearance / half-life: n=6; for AUC(0-inf): n=6, read-out: AUC AUC0-inf; for Half-life, clearance, MRT and AUC compared with the ambroxol hydrochloride group (in words): P<0.05
Procedure: Pharmacokinetics Test in Rats
Methods: Twenty-four female and male rats are randomLy allocated into an Example 1 compound group (10 mg/kg, as free alkali), an Example 3 compound group (10 mg/kg, as free alkali), an Example 12 compound group and an ambroxol hydrochloride group (10 mg/kg, as free alkali) (n=6); These rats are given corresponding products (dissolved in normal saline to adjust pH) intravenously. About 0.2 mL of blood samples is respectively collected from jugular veins before and 15.0 min, 30.0 min, 1.0 h, 2.0 h, 3.0 h, 4.0 h, 6.0 h, 8.0 h, 12.0 h and 24.0 h after the administration, and then centrifuged at a high speed (7800×g) for 15 min in a tube containing EDTA-K2. The separated plasma is stored at −15° C.˜−35° C.

SMILES | 90-min length of phlegm expelled (SD rats) [mm] | Excretory amount of phenol red (OD value) (mice) | MRT [1] [h] | clearance [1] [mL/min/kg] | half-life [1] [h] | AUC(0-inf) [1] [ng·h/mL] | Half-life, clearance, MRT and AUC compared with the ambroxol hydrochloride group (in words) [1] | Expectorant effect compared with the ambroxol hydrochloride group (in words) (SD rats) | Excretory amounts of phenol red compared with the ambroxol hydrochloride group (in words) (mice) | Excretory amounts of phenol red compared with the control group (in words) (mice)
Nc1c(Br)cc(Br)cc1CNC12CC3CC(C1)CC(C(F)(F)F)(C3)C2 [Example 6, (2-amino-3,5-dibromobenzyl)-3-trifluoromethyl-adamantane-1-amine] | 35.2 ± 4.79 |  |  |  |  |  |  |  |  | 
CC12CC3CC(C1)CC(NCc1cc(Br)cc(Br)c1N)(C3)C2 [Example 5, (2-amino-3,5-dibromobenzyl)-3-methyl-adamantane-1-amine] | 36.9 ± 5.45 | 0.201 ± 0.062 |  |  |  |  |  |  |  | 
Nc1c(Br)cc(Br)cc1CNC1C2CC3CC1CC(O)(C3)C2 (stereo not drawn) [Example 12, 4-((2-amino-3,5-dibromobenzyl)amino)adamantane-1-ol] | 39.8 ± 5.31 | 0.221 ± 0.059 | 2.65 ± 0.42 | 35.8 | 3.43 ± 0.35 | 4490 ± 240 | significantly superior to the ambroxol hydrochloride group | remarkably superior to the ambroxol hydrochloride | remarkably superior to the ambroxol hydrochloride | significantly increase
Nc1c(Br)cc(Br)cc1CN[C@H]1CC[C@H](O)CC1 [Ambroxol hydrochloride, reference compound] | 29.9 ± 4.96 | 0.131 ± 0.015 | 1.18 ± 0.2 | 101 | 1.98 ± 0.34 | 1650 ± 71.9 |  |  |  | significantly increase
Nc1c(Br)cc(Br)cc1CN[C@@H]1CCC[C@@H]1C(F)(F)F [Example 7, (1R,2S)-2-trifluoromethyl-((2-amino-3,5-dibromobenzyl)amino)-cyclopentane] | 31.8 ± 5.73 |  |  |  |  |  |  |  |  | 
Nc1c(Br)cc(Br)cc1CN[C@@H]1CCC[C@H]1O [Example 3, (1R,2R)-2-((2-amino-3,5-dibromobenzyl)amino)-cyclopentanol] | 37.8 ± 6.45 | 0.218 ± 0.052 | 2.31 ± 0.36 | 47.7 | 3.12 ± 0.34 | 3650 ± 180 | significantly superior to the ambroxol hydrochloride group | remarkably superior to the ambroxol hydrochloride | remarkably superior to the ambroxol hydrochloride | significantly increase
Nc1c(Br)cc(Br)cc1CNC12CC3CC(CC(C3)C1F)C2 (stereo not drawn) [Example 8, (2-amino-3,5-dibromobenzyl)-2-fluoro-adamantane-1-amine] | 35.8 ± 5.98 |  |  |  |  |  |  |  |  | 
Nc1c(Br)cc(Br)cc1CNC12CC3CC(CC(O)(C3)C1)C2 [Example 1, 3-((2-amino-3,5-dibromobenzyl)amino)adamantane-1-ol] | 39.9 ± 5.35 | 0.220 ± 0.063 | 2.58 ± 0.41 | 34.9 | 3.58 ± 0.45 | 4470 ± 250 | significantly superior to the ambroxol hydrochloride group | remarkably superior to the ambroxol hydrochloride | remarkably superior to the ambroxol hydrochloride | significantly increase
